{"source": "patent US12497393B2", "about": "“β-lactam compound, use thereof and preparation method therefor” (priority 2020, dated 2025)", "assay_in_all_cases": "Antibacterial activity MIC assay (two-fold dilution agar plating)", "type_in_all_cases": "cell-based", "key": {"[1]": {"system": "Acinetobacter baumannii", "settings": "for MIC: Acinetobacter baumannii, read-out: Minimal Inhibitory Concentration (MIC)", "method_in_brief": "(§1)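 MIC = lowest drug concentration with no visible growth after 18 h at 35 °C. Agar two-fold dilution (CLSI/NCCLS), 0.03–128.0 μg/mL; ATCC and clinical strains.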"}, "[2]": {"system": "Citrobacter freundii", "settings": "Citrobacter freundii ATCC 43864", "method_in_brief": "as §1"}, "[3]": {"system": "Enterobacter aerogenes", "settings": "Enterobacter aerogenes ATCC 13048", "method_in_brief": "as §1"}, "[4]": {"system": "Enterobacter cloacae", "settings": "for MIC: read-out: Minimal Inhibitory Concentration (MIC)", "method_in_brief": "as §1"}, "[5]": {"system": "Escherichia coli", "settings": "for MIC: Escherichia coli, read-out: Minimal Inhibitory Concentration (MIC)", "method_in_brief": "as §1"}, "[6]": {"system": "Klebsiella Pneumoniae", "settings": "for MIC: Klebsiella pneumoniae, read-out: Minimal Inhibitory Concentration (MIC)", "method_in_brief": "as §1"}, "[7]": {"system": "Proteus mirabilis", "method_in_brief": "as §1"}, "[8]": {"system": "Proteus vulgaris", "method_in_brief": "as §1"}, "[9]": {"system": "Providencia rettgeri", "method_in_brief": "as §1"}, "[10]": {"system": "Pseudomonas aeruginosa", "settings": "for MIC: read-out: Minimal Inhibitory Concentration (MIC)", "method_in_brief": "as §1"}, "[11]": {"system": "Salmonella typhi", "method_in_brief": "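Agar plates carrying two-fold compound dilutions (0.03–128.0 μg/mL) were spot-inoculated with ATCC or clinically isolated bacteria and kept at 35 °C for 18 hours; the lowest growth-free concentration gave the MIC.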"}, "[12]": {"system": "Serratia marcescens", "settings": "Serratia marcescens ATCC 21074", "method_in_brief": "as §1"}, "[13]": {"system": "Shigella flexneri", "settings": "Shigella flexneri ATCC 12022", "method_in_brief": "as §1"}, "[14]": {"system": "Stenotrophomonas maltophilia", "settings": "Stenotrophomonas maltophilia ATCC 13636", "method_in_brief": "as §1"}, "[15]": {"settings": "Enterobacter cloacae CDC1000654"}, "[16]": {"settings": "Escherichia coli 08-85, mcr-1(+)"}, "[17]": {"settings": "Escherichia coli 13-43, mcr-1(+)"}, "[18]": {"settings": "Escherichia coli 13-66, mcr-1(+)"}, "[19]": {"settings": "Escherichia coli 16-1, ESBLs(+)"}, "[20]": {"settings": "Escherichia coli 16-7, ESBLs(−)"}, "[21]": {"settings": "Escherichia coli CDC1001728, NDM-1(+)"}, "[22]": {"settings": "Klebsiella Pneumoniae 09-20, mcr-1(+)"}, "[23]": {"settings": "Klebsiella Pneumoniae 16-2, ESBLs(−)"}, "[24]": {"settings": "Klebsiella Pneumoniae 16-14, ESBLs(+)"}}, "note": "Where two headings read alike, the source gives them in different places."}
{"smiles": "C#CCON=C(C(=O)NC1C(=O)N(OS(=O)(=O)O)C1(C)C)c1csc(N)n1", "note": "(stereo not shown) [Compound B-2]", "values": [{"measurement": "Minimal Inhibitory Concentration (MIC)", "setting": "[1]; Acinetobacter baumannii 16-16", "result": 32, "unit": "mg/L"}, {"measurement": "Minimal Inhibitory Concentration (MIC)", "setting": "[1]; Acinetobacter baumannii 16-33", "result": 4, "unit": "mg/L"}, {"measurement": "Minimal Inhibitory Concentration (MIC)", "setting": "[1]; Acinetobacter baumannii ATCC 19606", "result": 4, "unit": "mg/L"}, {"measurement": "Minimal Inhibitory Concentration (MIC)", "setting": "[2]", "result": 0.5, "unit": "mg/L"}, {"measurement": "Minimal Inhibitory Concentration (MIC)", "setting": "[3]", "result": 1, "unit": "mg/L"}, {"measurement": "Minimal Inhibitory Concentration (MIC)", "setting": "[4]; Enterobacter cloacae ATCC 43560", "result": 0.5, "unit": "mg/L"}, {"measurement": "Minimal Inhibitory Concentration (MIC)", "setting": "[4]; [15]", "result": 8, "unit": "mg/L"}, {"measurement": "Minimal Inhibitory Concentration (MIC)", "setting": "[5]; [16]", "result": 0.5, "unit": "mg/L"}, {"measurement": "Minimal Inhibitory Concentration (MIC)", "setting": "[5]; [17]", "result": 1, "unit": "mg/L"}, {"measurement": "Minimal Inhibitory Concentration (MIC)", "setting": "[5]; [18]", "result": 1, "unit": "mg/L"}, {"measurement": "Minimal Inhibitory Concentration (MIC)", "setting": "[5]; [19]", "result": 0.25, "unit": "mg/L"}, {"measurement": "Minimal Inhibitory Concentration (MIC)", "setting": "[5]; [20]", "result": 0.5, "unit": "mg/L"}, {"measurement": "Minimal Inhibitory Concentration (MIC)", "setting": "[5]; Escherichia coli ATCC 25922, ESBLs(−)", "result": 0.5, "unit": "mg/L"}, {"measurement": "Minimal Inhibitory Concentration (MIC)", "setting": "[5]; Escherichia coli ATCC 35218, ESBLs(+)", "result": 0.25, "unit": "mg/L"}, {"measurement": "Minimal Inhibitory Concentration (MIC)", "setting": "[5]; [21]", "result": 4, "unit": "mg/L"}, {"measurement": "Minimal Inhibitory Concentration (MIC)", "setting": "[6]; [22]", "result": 1, "unit": "mg/L"}, {"measurement": "Minimal Inhibitory Concentration (MIC)", "setting": "[6]; [23]", "result": 0.5, "unit": "mg/L"}, {"measurement": "Minimal Inhibitory Concentration (MIC)", "setting": "[6]; [24]", "result": 1, "unit": "mg/L"}, {"measurement": "Minimal Inhibitory Concentration (MIC)", "setting": "[6]; Klebsiella Pneumoniae ATCC 700603, ESBLs(+)", "result": 16, "unit": "mg/L"}, {"measurement": "Minimal Inhibitory Concentration (MIC)", "setting": "[6]; Klebsiella Pneumoniae ATCC BAA-2146, NDM-1(+)", "result": 8, "unit": "mg/L"}, {"measurement": "Minimal Inhibitory Concentration (MIC)", "setting": "[7]; Proteus mirabilis ATCC 49565", "result": 0.06, "unit": "mg/L"}, {"measurement": "Minimal Inhibitory Concentration (MIC)", "setting": "[8]; Proteus vulgaris ATCC 29905", "result": "≤0.03", "unit": "mg/L"}, {"measurement": "Minimal Inhibitory Concentration (MIC)", "setting": "[9]; Providencia rettgeri ATCC 31052", "result": "≤0.03", "unit": "mg/L"}, {"measurement": "Minimal Inhibitory Concentration (MIC)", "setting": "[10]; Pseudomonas aeruginosa 16-11", "result": ">64", "unit": "mg/L"}, {"measurement": "Minimal Inhibitory Concentration (MIC)", "setting": "[10]; Pseudomonas aeruginosa ATCC 27853", "result": ">64", "unit": "mg/L"}, {"measurement": "Minimal Inhibitory Concentration (MIC)", "setting": "[10]; Pseudomonas aeruginosa PAO1", "result": 32, "unit": "mg/L"}, {"measurement": "Minimal Inhibitory Concentration (MIC)", "setting": "[11]; Salmonella typhi H901", "result": 0.5, "unit": "mg/L"}, {"measurement": "Minimal Inhibitory Concentration (MIC)", "setting": "[12]", "result": 0.5, "unit": "mg/L"}, {"measurement": "Minimal Inhibitory Concentration (MIC)", "setting": "[13]", "result": 0.5, "unit": "mg/L"}, {"measurement": "Minimal Inhibitory Concentration (MIC)", "setting": "[14]", "result": 32, "unit": "mg/L"}]}
{"smiles": "C[C@H]1COc2c(N3CCN(C)CC3)c(F)cc3c(=O)c(C(=O)O)cn1c23", "note": "[Levofloxacin, levofloxacin, reference compound]", "values": [{"measurement": "MIC", "setting": "[1]; ATCC19606, Acinetobacter baumannii ATCC 19606", "result": 0.25, "unit": "mg/L"}, {"measurement": "MIC", "setting": "[1]; Acinetobacter baumannii 16-16", "result": 16, "unit": "mg/L"}, {"measurement": "MIC", "setting": "[1]; Acinetobacter baumannii 16-33", "result": 2, "unit": "mg/L"}, {"measurement": "MIC", "setting": "[2]; ATCC43864, read-out: Minimal Inhibitory Concentration (MIC)", "result": "≤ 0.03", "unit": "mg/L"}, {"measurement": "MIC", "setting": "[3]; Klebsiella aerogenes, ATCC13048, read-out: Minimal Inhibitory Concentration (MIC)", "result": 0.06, "unit": "mg/L"}, {"measurement": "MIC", "setting": "[4]; ATCC43560, Enterobacter cloacae ATCC 43560", "result": "≤ 0.03", "unit": "mg/L"}, {"measurement": "MIC", "setting": "[4]; [15]", "result": 32, "unit": "mg/L"}, {"measurement": "MIC", "setting": "[5]; ATCC25922, Escherichia coli ATCC 25922, ESBLs(−)", "result": "≤ 0.03", "unit": "mg/L"}, {"measurement": "MIC", "setting": "[5]; ATCC35218, Escherichia coli ATCC 35218, ESBLs(+)", "result": "≤ 0.03", "unit": "mg/L"}, {"measurement": "MIC", "setting": "[5]; [16]", "result": 16, "unit": "mg/L"}, {"measurement": "MIC", "setting": "[5]; [17]", "result": 32, "unit": "mg/L"}, {"measurement": "MIC", "setting": "[5]; [18]", "result": 32, "unit": "mg/L"}, {"measurement": "MIC", "setting": "[5]; [19]", "result": 0.5, "unit": "mg/L"}, {"measurement": "MIC", "setting": "[5]; [20]", "result": 0.5, "unit": "mg/L"}, {"measurement": "MIC", "setting": "[5]; Escherichia coli 17-R28, CRE, NDM-1(+)", "result": 8, "unit": "mg/L"}, {"measurement": "MIC", "setting": "[5]; [21]", "result": 8, "unit": "mg/L"}, {"measurement": "MIC", "setting": "[6]; ATCC700603, Klebsiella Pneumoniae ATCC 700603, ESBLs(+)", "result": 0.5, "unit": "mg/L"}, {"measurement": "MIC", "setting": "[6]; ATCCBAA2146, Klebsiella Pneumoniae ATCC BAA-2146, NDM-1(+)", "result": 128, "unit": "mg/L"}, {"measurement": "MIC", "setting": "[6]; [22]", "result": 16, "unit": "mg/L"}, {"measurement": "MIC", "setting": "[6]; [23]", "result": 0.06, "unit": "mg/L"}, {"measurement": "MIC", "setting": "[6]; [24]", "result": 0.5, "unit": "mg/L"}, {"measurement": "MIC", "setting": "[7]; Proteus mirabilis, ATCC49565, Proteus mirabilis ATCC 49565, read-out: Minimal Inhibitory Concentration (MIC)", "result": "≤ 0.03", "unit": "mg/L"}, {"measurement": "MIC", "setting": "[8]; Proteus vulgaris, ATCC29905, Proteus vulgaris ATCC 29905, read-out: Minimal Inhibitory Concentration (MIC)", "result": "≤ 0.03", "unit": "mg/L"}, {"measurement": "MIC", "setting": "[9]; Providencia rettgeri, ATCC31052, Providencia rettgeri ATCC 31052, read-out: Minimal Inhibitory Concentration (MIC)", "result": "≤ 0.03", "unit": "mg/L"}, {"measurement": "MIC", "setting": "[10]; ATCC27853, Pseudomonas aeruginosa ATCC 27853", "result": 1, "unit": "mg/L"}, {"measurement": "MIC", "setting": "[10]; Pseudomonas aeruginosa 16-11", "result": 0.5, "unit": "mg/L"}, {"measurement": "MIC", "setting": "[10]; Pseudomonas aeruginosa PAO1", "result": 4, "unit": "mg/L"}, {"measurement": "MIC", "setting": "[11]; Salmonella enterica, TYPHI, read-out: Minimal Inhibitory Concentration (MIC)", "result": "≤ 0.03", "unit": "mg/L"}, {"measurement": "MIC", "setting": "[12]; ATCC21074, read-out: Minimal Inhibitory Concentration (MIC)", "result": 0.12, "unit": "mg/L"}, {"measurement": "MIC", "setting": "[13]; ATCC12022, read-out: Minimal Inhibitory Concentration (MIC)", "result": 0.06, "unit": "mg/L"}, {"measurement": "MIC", "setting": "[14]; ATCC13636, read-out: Minimal Inhibitory Concentration (MIC)", "result": 2, "unit": "mg/L"}]}
